Test results from paper PMC6001459 (The Febs Journal, 2018).

Molecular target: T1, PpBBE1 (Physcomitrium patens, UniProt A0A2K1JP57, D396N)
T1 construct: gene PHYPA_015719; full-length precursor 501 residues; native signal peptide (predicted 1-30) removed; C-terminal octahistidine tag; secreted from Komagataella phaffii KM71H (pPICZalpha, PDI coexpressed); ca. 54 kDa; monomer; bicovalent FAD
Assay: X-ray crystal structure, […] A
Format: binding
Conditions: covalent; bicovalent via 8alpha to H111 and C6 to C172

T1 sequence (A0A2K1JP57 entry or part of it D396N): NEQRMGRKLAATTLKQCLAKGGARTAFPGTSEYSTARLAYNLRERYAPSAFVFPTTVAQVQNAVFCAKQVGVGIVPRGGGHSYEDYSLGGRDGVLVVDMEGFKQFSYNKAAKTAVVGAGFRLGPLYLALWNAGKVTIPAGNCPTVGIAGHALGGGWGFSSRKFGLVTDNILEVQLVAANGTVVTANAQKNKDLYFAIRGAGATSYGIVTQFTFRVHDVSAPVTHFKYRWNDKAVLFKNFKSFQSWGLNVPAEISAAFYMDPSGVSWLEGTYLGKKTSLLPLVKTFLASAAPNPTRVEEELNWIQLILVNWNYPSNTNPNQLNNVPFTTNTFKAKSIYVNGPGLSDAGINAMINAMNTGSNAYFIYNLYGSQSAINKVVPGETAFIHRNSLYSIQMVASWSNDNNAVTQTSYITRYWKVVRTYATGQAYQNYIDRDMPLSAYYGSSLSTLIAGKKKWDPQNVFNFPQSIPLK

Cc1cc2nc3c(=O)[nH]c(=O)nc-3n(C[C@H](O)[C@H](O)[C@H](O)COP(=O)(O)OP(=O)(O)OC[C@H]3O[C@@H](n4cnc5c(N)ncnc54)[C@H](O)[C@@H]3O)c2cc1C [FAD]
X-ray crystal structure, 2.6 A: confirmed the bicovalent linkage of the flavin cofactor
